Source: patent publication EP0117302A2, “Phenothiazine derivatives” (THE WELLCOME FOUNDATION LIMITED, priority 1982, dated 1984)
Read-outs that look alike come from different tables or passages of the source.

Tests used:
histamine [1] = experiment: In vitro antihistamine activity: histamine concentration-response curves on isolated ileum longitudinal muscle, Schild plot; assay type: cell-based, guinea-pigs; details: guinea-pig ileum longitudinal muscle, one hour incubation with test compound, antagonism of histamine; for Kb: Cavia porcellus, 1 h, read-out: pA2 (converted); for pA2: 60 min
Description: A. In vitro antihistamine activity: The longitudinal muscle was isolated from the intact ileum of guinea-pigs (Hartley, male 250-400g) and placed in an organ bath under 300 mg tension. […] Following washing, the tissues were incubated for one hour with the test compound and then a second histamine concentration-response curve was run. […] Regression of Log (dr-1) on Log [B], where dr is an equiactive response in the presence and absence of antagonist and [B] is the molar concentration of antagonist, allowed an estimate of pA2, i.e. the negative log of the concentration of antagonist which shifts the control histamine concentration response curve 2X to the right.

compound 48/80 = experiment: Inhibition of compound 48/80 induced anaphylactoid reaction; assay type: in vivo, Wister rats; details: Rattus norvegicus, rats, compound administered 2 hrs. prior to test, read-out: ED50 (dose providing 50% protection against death induced by compound 48/80)
Description: Non-fasted, Wister rats (180-300g).were dosed with the test compound, (i.p. or p.o.) 2 hours before compound 48/80 challenge. One hour prior to challenge, 5 mg/kg i.p. of propranolol was administered. The anaphylactoid inducing agent, compound 48/80, was given intravenously at 2 mg/kg and the animals were monitored for symptoms of respiratory distress.
Data were analyzed by Probit determinations. the response was quantitated by determining the dose of test compound which protected 50% of the animals from death at a given time point.
Agents which block the effects of compound 48/80 are commonly classified as inhibitors of anaphylactic mediators or inhibitors of the release of anaphylic mediators.

[2] = Pharmacokinetic studies: relative distribution in brain and plasma; assay type: in vivo; details: rodents, compared with promethazine
histamine [3] = experiment: In vivo antihistaminic activity: protection against histamine aerosol challenge; details: Cavia porcellus, po, guinea pigs
Description: B. In vivo Antihistaminic Activity: Guinea pigs (Hartley, male, 300-350 g) were fasted for 20 hours and then dosed p.o. or i.p. with the test compound. One hour after dosing, on an individual basis, the guinea pigs were placed in a clear plastic chamber which was saturated and continually gassed with 0.25% histamine from an aerosol nebulizer. The guinea pigs were monitored for signs of histamine anaphylaxis (e.g. cough, sneeze, strong abdominal movements, cyanoses or loss of righting). […] ED50's for protection against histamine were calculated by probit analysis. […] Complete protection was defined as no histamine symptoms for six minutes in the aerosol chamber (approximately 10X the collapse time of the control animals).

[4] = Acute toxicity (approximate LD50); details: rat, in vivo, rats

Compound: CCOC(=O)Cc1ccc2c(c1)N(CC(C)N(C)C)c1ccc(Cl)cc1S2 (centres unmarked) [Compound J]
- Kb (histamine [1]): 1 nM

Compound: CC(CN1c2ccccc2Sc2cc(C(=O)O)ccc21)N(C)C (centres unmarked) [Compound D, 10-(2-dimethylaminopropyI)phenothiazine-3-carboxylic acid]
- Kb (histamine [1]): 631 nM

Compound: 10-(2-dimethylaminopropyl)phenothiazine-4(or 1)-carboxylic acid [Compound G]
- pA2 (histamine [1]): 6.8

Compound: E-4 (or 1)-(2-carboxyvinyl)-10-(2-dimethylaminopropyl)phenothiazine [Compound H]
- pA2 (histamine [1]): 7.8

Compound: Cc1ccc2c(c1)Sc1ccc(CC(=O)O)cc1N2CCN(C)C [Compound M, [10-(2-Dimethylaminoethyl)-7-methyl-2-phenothiazinyl]acetic acid]
- Kb (histamine [1]): 1.26 nM

Compound: CC(CN1c2ccccc2Sc2cc(CCC(=O)O)ccc21)N(C)C (centres unmarked) [Compound F, 3-(2-carboxyethyl)-10-(2-dimethylaminopropyl)phenothiazine]
- Kb (histamine [1]): 6310 nM

Compound: CC(CN1c2ccccc2Sc2cc(/C=C/C(=O)O)ccc21)N(C)C (centres unmarked) [Compound E, E-3-(2-carboxyvinyl)-10-(2-dimethylaminopropyl)-phenothiazine]
- Kb (histamine [1]): 631 nM
- ED50 (compound 48/80; ip): 3.11 mg/kg

Compound: CCOC(=O)Cc1ccc2c(c1)N(CCN(C)C)c1ccc(C)cc1S2 [Compound L, Ethyl [10-(2-dimethylaminoethyl)-7-methyl-2-phenothiazinyl]acetate]
- Kb (histamine [1]): 0.794 nM

Compound: CC(CN1c2ccccc2Sc2ccc(/C=C/C(=O)O)cc21)N(C)C (stereo not drawn) [Compound A, trans-β-[10-(2-Dimethylaminopropyl)phenothiazin-2-yl]acryiic acid]
- brain penetration [2]: do not readily penetrate the brains of rodents
- ED50 (histamine [3]; 0.25% histamine aerosol, 1 hour post-dosing, read-out: ED50): 1.7 mg/kg
- ED50 (histamine [3]; 24 hours protection, read-out: ED50 for 24 hours protection): 11 mg/kg
- Kb (histamine [1]): 6.31 nM
- ED50 (compound 48/80; ip): 2.64 mg/kg

Compound: CC(C(=O)O)c1ccc2c(c1)N(CC(C)N(C)C)c1ccccc1S2 (centres unmarked) [Compound C, 2-[10-(2-Dimethylaminopropyi)phenothiazin-2-yl]propionic acid]
- Kb (histamine [1]): 7.94 nM
- ED50 (compound 48/80; ip): 1.43 mg/kg

Compound: CC(CN1c2ccccc2Sc2ccc(CC(=O)O)cc21)N(C)C (centres unmarked) [Compound B, 2-[10-(2-Dimethylaminopropyl)phenothiazin-2-yl]acetic acid]
- brain penetration [2]: do not readily penetrate the brains of rodents
- LD50 ([4]; ip): ~210 mg/kg
- LD50 ([4]; po): > 500 mg/kg
- ED50 (histamine [3]; 0.25% histamine aerosol, 4 hours post dosing, read-out: ED50): 0.3 mg/kg
- Kb (histamine [1]): 0.398 nM
- ED50 (compound 48/80; ip): 0.89 mg/kg
- ED50 (compound 48/80; po): 1.2 mg/kg

Compound: CC(CN1c2ccccc2Sc2ccc(C(=O)O)cc21)N(C)C (centres unmarked) [Compound S, 10-(2-Dimethylaminopropyl)phenothiazin-2-yl-carboxylic acid]
- Kb (histamine [1]): 1 nM

Compound: CC(CN1c2ccccc2Sc2ccc(C(C)(C)C(=O)O)cc21)N(C)C (centres unmarked) [Compound P]
- Kb (histamine [1]): 1.58 nM

Compound: 4 (or 1)-(2-carboxyethyl)-10-(2-dimethylaminopropyl)-phenothiazine [Compound I]
- pA2 (histamine [1]): 7.2

Compound: CN(C)CCCN1c2ccccc2Sc2ccc(C(C)(C)C(=O)O)cc21 [Compound Q, 2-[10(3-dimethylaminopropyl)-2-phenothiazinyl]-2-methylpropionic acid]
- Kb (histamine [1]): 2 nM

Compound: CC(CN1c2ccc(Cl)cc2Sc2ccc(CC(=O)O)cc21)N(C)C (centres unmarked) [Compound K, [7-Chloro-10-(2-dimethylaminopropyl)-2-phenothiazinyl]acetic acid]
- Kb (histamine [1]): 1.58 nM

Compound: COc1ccc(CCN2CCC(Nc3nc4ccccc4n3Cc3ccc(F)cc3)CC2)cc1 [Astemizole, reference compound]
- ED50 (compound 48/80; ip): 1.08 mg/kg

Compound: CCOC(=O)C(C)(C)c1ccc2c(c1)N(CC(C)N(C)C)c1ccccc1S2 (centres unmarked) [Compound O, Ethyl 2-[10-(2-dimethylaminopropyl)-2-phenothiazinyl]-2-methylpropionate]
- Kb (histamine [1]): 3.16 nM

Compound: [10-(2-diethylaminoethyl)-7-fluoro-2-phenothiaznyl]acetic acid [Compound N]
- pA2 (histamine [1]): 8.6

Compound: CN1CCC(=C2c3ccccc3CC(=O)c3sccc32)CC1 [Ketotifen, reference compound]
- ED50 (compound 48/80; ip): 0.87 mg/kg
